Measurements from US8372831B2, “Isoxazoline linked pyrrolo[2,1-c][1,4]benzodiazepine hybrids as potential anticancer agents and the process for preparation thereof” (Council of Scientific & Industrial Research, priority 2008, dated 2013).

Experiments:
Format in all cases: cell-based, human
Conditions in all cases: 48 hrs exposure
[1] = test system: SK-OV-3; experiment: NCI SRB cytotoxicity, SK-OV-3 (ovarian)
Procedure: (§1) Biological Activity: The in vitro biological activity studies were carried out at the National Cancer Institute, Maryland, USA.
(§2) The C8-linked isoxazoline-PBD hybrids have been tested against sixty human tumour cell lines derived from nine cancer types (leukemia, non-small cell lung cancer, colon cancer, CNS cancer, melanoma, ovarian cancer, renal cancer, prostate cancer and breast cancer) as per NCI protocol. For each compound, dose response curves for individual cell lines have been measured at a minimum of five concentrations at 10 fold dilutions. A protocol of 48 hrs continuous drug exposure has been used, and a sulforhodamine B (SRB) protein assay was used to estimate cell viability or growth. The concentration for 50% cell growth inhibition (GI50), total cell growth inhibition (TGI, 0% growth) and 50% cell death (LC50, […]) compared with the control has been calculated (FIG. 2).
(§3) Compound 5b and 9b have been evaluated for in vitro cytotoxicity in sixty cell lines from nine human cancer types of lung (Hop-62, NCI-H226, NCI-H522), leukemia (K-562, SR), colon (HCT-116, HCT-15, HCC-2998), CNS(SF-539), melanoma (SK-MEL-5, UACC-62, M14), ovarian (IGROV1), renal (A498), prostate (PC3) breast (BT-549, MDA-MB-435, HS578T) origin. The results are expressed as percent of cell growth determined relative to that of untreated control cells (Table 1).

[2] = test system: HL-60(TB); experiment: NCI SRB cytotoxicity, HL-60(TB) (leukemia)
Procedure: as §1, §2, §3

[3] = test system: A498; experiment: NCI SRB cytotoxicity, A498 (renal)
Procedure: as §1, §2, §3

Compound | GI50 [1] | GI50 [2] | GI50 [3]
COc1cc(C2=NOC(c3cc(OC)c(OC)c(OC)c3)C2)ccc1OCCCCOc1cc2c(cc1OC)C(=O)N1CCC[C@H]1C=N2 (stereo partly drawn) [Compound 5b, (11aS)-7-(methyloxy)-8-(4-[(2-(methyloxy)-4-5-[3,4,5-tri(methyloxy)phenyl]-4,5-dihydro-3-isoxazolylphenyl)oxy]butyloxy)-2,3,5,11a-tetrahydro-1H benzo[e]pyrrolo[1,2-a][1,4]diazepin-5-one] | 0.47 µM | 0.18 µM | 
COc1ccc(C2CC(c3ccc(OC)c(OC)c3OC)=NO2)cc1OCCCCOc1cc2c(cc1OC)C(=O)N1CCC[C@H]1C=N2 (stereo partly drawn) [Compound 9b, (11aS)-7-(methyloxy)-8-(4-[(2-(methyloxy)-5-3-[2,3,4-tri(methyloxy)phenyl]-4,5-dihydro-5-isoxazolylphenyl)oxy]butyloxy)-2,3,5,11a-tetrahydro-1H-benzo[e]pyrrolo[1,2-a][1,4]diazepin-5-one] | 3.37 µM | 1.9 µM | 1.72 µM
